± gives the standard deviation of the averaged measurements.
Tested on: ZR-75-1
Test: relative cell number vs DMSO control (72 h) (% of DMSO); higher = less growth inhibition (more cells)
Details: sgRNA knockout: sgNT, 10 nM
Procedure: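 QMAP-Seq: a pool of 5 breast cancer cell lines (ZR-75-1, SKBR3, HCC-38, MDA-MB-231, BT-20), each carrying 12 doxycycline-inducible Cas9 sgRNA perturbations (11 knockouts plus non-targeting sgNT), was treated with compounds for 72 h at four 10-fold doses (10 nM-10 uM or 1 nM-1 uM range). Barcodes were amplified and sequenced, and cell number was interpolated from 293T spike-in standard curves. The result is expressed as % of the median of DMSO wells. Two biological replicates.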

SMILES | relative cell number
S=c1nc[nH]c2nc[nH]c12 [6-Mercaptopurine] | 100 ± 55

Same assay, conditions: sgRNA knockout: sgNT, 100 nM

SMILES | relative cell number
Cc1cnc(Nc2ccc(OCCN3CCCC3)cc2)nc1Nc1cccc(S(=O)(=O)NC(C)(C)C)c1 | 108 ± 2.4
CN(C)CC[C@H](CSc1ccccc1)Nc1ccc(S(=O)(=O)NC(=O)c2ccc(N3CCN(Cc4ccccc4-c4ccc(Cl)cc4)CC3)cc2)cc1[N+](=O)[O-] [ABT737] | 117 ± 40
O=P1(N(CCCl)CCCl)NCCCO1 (stereo not given) [Cyclophosphamide] | 111 ± 50
CCOC(=O)[C@@]1(CCCCCCOc2ccc(Cl)cc2)CO1 [Etomoxir] | 90.7 ± 8.2
Cc1ccc(Nc2nccc(N(C)c3ccc4c(C)n(C)nc4c3)n2)cc1S(N)(=O)=O [Pazopanib] | 52.6 ± 23
CC(C)C[C@H](NC(=O)[C@H](CCc1ccccc1)NC(=O)CN1CCOCC1)C(=O)N[C@@H](Cc1ccccc1)C(=O)N[C@@H](CC(C)C)C(=O)[C@@]1(C)CO1 [Carfilzomib] | 22.8 ± 13
N.N.[Cl][Pt][Cl] [Cisplatin] | 88.2 ± 45
Cc1cc2c(C(C)C)c(O)c(O)c(C=O)c2c(O)c1-c1c(C)cc2c(C(C)C)c(O)c(O)c(C=O)c2c1O [Gossypol] | 96 ± 13
COc1cccc2c1C(=O)c1c(O)c3c(c(O)c1C2=O)C[C@@](O)(C(=O)CO)C[C@@H]3O[C@H]1C[C@H](N)[C@H](O)[C@H](C)O1 [Doxorubicin] | 31.7 ± 2.4
CCC(C)SSc1ncc[nH]1 (stereo not given) [PX12] | 102 ± 48
CC(=O)Nc1nc(C)c(S(=O)(=O)Nc2ccc(C(O)(C(F)(F)F)C(F)(F)F)cc2)s1 [SR1001] | 80.6 ± 15
CN1CCc2c(c3ccccc3n2Cc2ccc(C(=O)NO)cc2)C1 [TubastatinA] | 74 ± 43
CCOc1ccccc1-n1c(C(C)N2CCN(C(=O)COc3ccc(Cl)cc3)CC2)nc2ccccc2c1=O (stereo not given) [Erastin] | 89.4 ± 42
CN1C(=O)C(Cc2c[nH]c3ccccc23)NC1=S (stereo not given) [Necrostatin1] | 71.3 ± 29
O=C1NC(=O)[C@@H](c2cn3c4c(cccc24)CCC3)[C@@H]1c1c[nH]c2ccccc12 [Tivantinib] | 70.4 ± 1.6
CCn1c(=O)c2c(nc(/C=C/c3ccc(OC)c(OC)c3)n2C)n(CC)c1=O [Istradefylline] | 114 ± 3.4
COc1ccc(-c2ccc3c(N4CCOCC4)nc(N4C[C@@H](C)O[C@@H](C)C4)nc3n2)cc1CO | 116 ± 21
C[C@]12CC[C@@H]3c4ccc(O)cc4C[C@@H](CCCCCCCCC[S+]([O-])CCCC(F)(F)C(F)(F)F)[C@H]3[C@@H]1CC[C@@H]2O (stereo not given in full) [Fulvestrant] | 41.9 ± 3.1
COC(=O)Nc1nc2cc(C(=O)c3ccccc3)ccc2[nH]1 [Mebendazole] | 64.7 ± 17
O=C(NOCC(O)CO)c1cc(Br)c(F)c(F)c1Nc1ccc(I)cc1F (stereo not given) | 76.9 ± 7.1
OCc1ccc(-c2ccc(-c3ccc(CO)s3)o2)s1 | 9.97 ± 1.1
CC(=O)Nc1cccc(-n2c(=O)n(C3CC3)c(=O)c3c(Nc4ccc(I)cc4F)n(C)c(=O)c(C)c32)c1 [Trametinib] | 51.9 ± 2.8
C=CCn1c(=O)c2cnc(Nc3ccc(N4CCN(C)CC4)cc3)nc2n1-c1cccc(C(C)(C)O)n1 [MK1775] | 77.7 ± 43
S=c1nc[nH]c2nc[nH]c12 [6-Mercaptopurine] | 66.5 ± 5.7

Same assay, conditions: sgRNA knockout: sgNT, 1000 nM

SMILES | relative cell number
Cc1cnc(Nc2ccc(OCCN3CCCC3)cc2)nc1Nc1cccc(S(=O)(=O)NC(C)(C)C)c1 | 71.3 ± 26
CN(C)CC[C@H](CSc1ccccc1)Nc1ccc(S(=O)(=O)NC(=O)c2ccc(N3CCN(Cc4ccccc4-c4ccc(Cl)cc4)CC3)cc2)cc1[N+](=O)[O-] [ABT737] | 124 ± 25
O=P1(N(CCCl)CCCl)NCCCO1 (stereo not given) [Cyclophosphamide] | 81.3 ± 37
CCOC(=O)[C@@]1(CCCCCCOc2ccc(Cl)cc2)CO1 [Etomoxir] | 75.46 ± 0.14
Cc1ccc(Nc2nccc(N(C)c3ccc4c(C)n(C)nc4c3)n2)cc1S(N)(=O)=O [Pazopanib] | 60.8 ± 12
CC(C)C[C@H](NC(=O)[C@H](CCc1ccccc1)NC(=O)CN1CCOCC1)C(=O)N[C@@H](Cc1ccccc1)C(=O)N[C@@H](CC(C)C)C(=O)[C@@]1(C)CO1 [Carfilzomib] | 7.73 ± 3.8
N.N.[Cl][Pt][Cl] [Cisplatin] | 89.7 ± 35
Cc1cc2c(C(C)C)c(O)c(O)c(C=O)c2c(O)c1-c1c(C)cc2c(C(C)C)c(O)c(O)c(C=O)c2c1O [Gossypol] | 106 ± 54
COc1cccc2c1C(=O)c1c(O)c3c(c(O)c1C2=O)C[C@@](O)(C(=O)CO)C[C@@H]3O[C@H]1C[C@H](N)[C@H](O)[C@H](C)O1 [Doxorubicin] | 22.2 ± 16
CCC(C)SSc1ncc[nH]1 (stereo not given) [PX12] | 69.5 ± 9.5
CC(=O)Nc1nc(C)c(S(=O)(=O)Nc2ccc(C(O)(C(F)(F)F)C(F)(F)F)cc2)s1 [SR1001] | 82.9 ± 26
CN1CCc2c(c3ccccc3n2Cc2ccc(C(=O)NO)cc2)C1 [TubastatinA] | 93.1 ± 40
CCOc1ccccc1-n1c(C(C)N2CCN(C(=O)COc3ccc(Cl)cc3)CC2)nc2ccccc2c1=O (stereo not given) [Erastin] | 81.3 ± 20
CN1C(=O)C(Cc2c[nH]c3ccccc23)NC1=S (stereo not given) [Necrostatin1] | 78.3 ± 31
O=C1NC(=O)[C@@H](c2cn3c4c(cccc24)CCC3)[C@@H]1c1c[nH]c2ccccc12 [Tivantinib] | 20.4 ± 6.4
CCn1c(=O)c2c(nc(/C=C/c3ccc(OC)c(OC)c3)n2C)n(CC)c1=O [Istradefylline] | 110 ± 7.6
COc1ccc(-c2ccc3c(N4CCOCC4)nc(N4C[C@@H](C)O[C@@H](C)C4)nc3n2)cc1CO | 101 ± 4.9
C[C@]12CC[C@@H]3c4ccc(O)cc4C[C@@H](CCCCCCCCC[S+]([O-])CCCC(F)(F)C(F)(F)F)[C@H]3[C@@H]1CC[C@@H]2O (stereo not given in full) [Fulvestrant] | 73.3 ± 26
COC(=O)Nc1nc2cc(C(=O)c3ccccc3)ccc2[nH]1 [Mebendazole] | 36.8 ± 8.2
O=C(NOCC(O)CO)c1cc(Br)c(F)c(F)c1Nc1ccc(I)cc1F (stereo not given) | 71.2 ± 4.6
OCc1ccc(-c2ccc(-c3ccc(CO)s3)o2)s1 | 10.6 ± 4.2
CC(=O)Nc1cccc(-n2c(=O)n(C3CC3)c(=O)c3c(Nc4ccc(I)cc4F)n(C)c(=O)c(C)c32)c1 [Trametinib] | 43.3 ± 13
C=CCn1c(=O)c2cnc(Nc3ccc(N4CCN(C)CC4)cc3)nc2n1-c1cccc(C(C)(C)O)n1 [MK1775] | 51.7 ± 24
S=c1nc[nH]c2nc[nH]c12 [6-Mercaptopurine] | 100 ± 59

Same assay, conditions: sgRNA knockout: sgNT, 10000 nM

SMILES | relative cell number
Cc1cnc(Nc2ccc(OCCN3CCCC3)cc2)nc1Nc1cccc(S(=O)(=O)NC(C)(C)C)c1 | 10.8 ± 5.8
CN(C)CC[C@H](CSc1ccccc1)Nc1ccc(S(=O)(=O)NC(=O)c2ccc(N3CCN(Cc4ccccc4-c4ccc(Cl)cc4)CC3)cc2)cc1[N+](=O)[O-] [ABT737] | 73.9 ± 11
O=P1(N(CCCl)CCCl)NCCCO1 (stereo not given) [Cyclophosphamide] | 89 ± 21
CCOC(=O)[C@@]1(CCCCCCOc2ccc(Cl)cc2)CO1 [Etomoxir] | 57.2 ± 7.3
Cc1ccc(Nc2nccc(N(C)c3ccc4c(C)n(C)nc4c3)n2)cc1S(N)(=O)=O [Pazopanib] | 30.5 ± 1.7
N.N.[Cl][Pt][Cl] [Cisplatin] | 74.5 ± 27
Cc1cc2c(C(C)C)c(O)c(O)c(C=O)c2c(O)c1-c1c(C)cc2c(C(C)C)c(O)c(O)c(C=O)c2c1O [Gossypol] | 26.9 ± 14
COc1cccc2c1C(=O)c1c(O)c3c(c(O)c1C2=O)C[C@@](O)(C(=O)CO)C[C@@H]3O[C@H]1C[C@H](N)[C@H](O)[C@H](C)O1 [Doxorubicin] | 10 ± 4.1
CCC(C)SSc1ncc[nH]1 (stereo not given) [PX12] | 54.7 ± 25
CC(=O)Nc1nc(C)c(S(=O)(=O)Nc2ccc(C(O)(C(F)(F)F)C(F)(F)F)cc2)s1 [SR1001] | 113 ± 64
CN1CCc2c(c3ccccc3n2Cc2ccc(C(=O)NO)cc2)C1 [TubastatinA] | 40.4 ± 1.6
